Assay results published in US11744839B2, “Method of increasing platelet counts of a subject” (KOREA BASIC SCIENCE INSTITUTE, priority 2021, dated 2023).

How the values were obtained:
BLVRB [1] = biological target: T1, BLVRB (Homo sapiens, UniProt P30043); experiment: Isothermal titration calorimetry (ITC) of compound binding to BLVRB; details: for TΔS / ΔG / ΔH (enthalpy of the reaction) / N (stoichiometry) / contribution from entropy, of the total binding energy: 25 °C; for N (stoichiometry): single-site binding model; for Kd: read-out: KD (dissociation constant), 25 °C
T1 sequence (P30043 1-206): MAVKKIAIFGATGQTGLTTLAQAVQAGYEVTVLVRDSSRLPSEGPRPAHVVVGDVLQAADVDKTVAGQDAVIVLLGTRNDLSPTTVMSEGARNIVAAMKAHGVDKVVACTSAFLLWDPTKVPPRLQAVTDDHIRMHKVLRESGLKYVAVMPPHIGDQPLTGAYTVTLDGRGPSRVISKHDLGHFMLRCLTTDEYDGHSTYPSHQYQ

BLVRB [2] = biological target: T1, BLVRB; experiment: NMR titration (HSQC) experiments with 15N-labeled BLVRB; format: binding; details: half-holo BLVRB 0.3 mM, ratio up to 1:10
Experimental: Ratio 1:0, 1:0.6, 1:1, 1:10 [Half-holo form of BLVRB (0.3 mM):phloxine B and erythrosin B].
(§1) The inhibition mechanism of these two compounds was investigated in physiological environment by NMR.
Protein-based NMR spectroscopy is one of the most well-suited methods to identify intermolecular interactions including small molecule and protein interactions. Further, protein-based NMR methods provide information on binding sites, which is of prime interest for optimizing small molecules. Therefore, HSQC experiments of ^15N-labeled BLVRB were performed by titrating increasing amounts of the subject compounds to monitor the chemical shift changes upon the binding of the compounds identified in the enzyme activity assay. In particular, Ser111 was previously identified as a key residue involved in the catalytic mechanism of BLVRB. […] Using the assignment, the chemical shift perturbations (CSPs) of BLVRB by each drug were extracted from the spectra and the binding site of each drug was identified based on the CSPs.
Half-holo form of BLVRB (with NADP^+) was used for NMR experiments. All the subject compounds were dissolved in DMSO-d6. NMR titration and 1D experiments were operated at a ^1H frequency of 800 MHz using a Bruker Avance spectrometer. All experiments were performed at 298 K and 5 mm diameter NMR tubes with a sample volume 500 μL were used.

BLVRB [3] = biological target: T1, BLVRB; experiment: Dynamic light scattering (DLS) of BLVRB with inhibitor; details: molar ratio 0, 1, 5, 10 compound/BLVRB
Text: FIGS. 2A and 2B show DLS results of BLVRB depending on the concentration of phloxine B (FIG. 2A) and erythorosin B (FIG. 2B). Molar ratio of the sample is 0, 1, 5, 10 [erythrosin B or phloxine B/BLVRB]. The horizontal axis represents the diameter of each drug on a logarithmic scale. The vertical axis represents the relative intensity of the signal.
as §1

rats = details: chronic administration; cited from earlier work

With `Cc1nc(-c2ccc(OCC(C)C)c(C#N)c2)sc1C(=O)O` [Compound of formula 5] the TΔS (BLVRB [1]) was 2.14 ± 0.11 kcal/mol, the ΔG (BLVRB [1]) was -7.90 ± 0.08 kcal/mol and the “ΔH (enthalpy of the reaction)” value (BLVRB [1]) was -5.75 ± 0.08 kcal/mol. The “N (stoichiometry)” value (BLVRB [1]) was 1.01 and the Kd (BLVRB [1]) was 1630 ± 210 nM.
For `O=C(O)c1ccc(-n2nc(-c3ccccc3O)nc2-c2ccccc2O)cc1` [Compound of formula 6], the TΔS (BLVRB [1]) was 0.55 ± 0.12 kcal/mol, the ΔG (BLVRB [1]) was -7.87 ± 0.07 kcal/mol and the “ΔH (enthalpy of the reaction)” value (BLVRB [1]) was -7.32 ± 0.10 kcal/mol. The “N (stoichiometry)” value (BLVRB [1]) was 1.00 and the Kd (BLVRB [1]) was 1710 ± 210 nM.
With `Cc1c(Nc2ncccc2C(=O)O)cccc1C(F)(F)F` [Compound of formula 7] the TΔS (BLVRB [1]) was 0.41 ± 0.07 kcal/mol, the ΔG (BLVRB [1]) was -8.95 ± 0.06 kcal/mol and the “ΔH (enthalpy of the reaction)” value (BLVRB [1]) was -8.54 ± 0.04 kcal/mol. For the same molecule, the “N (stoichiometry)” value (BLVRB [1]) was 0.99 and the Kd (BLVRB [1]) was 270 ± 30 nM.
In the case of `O=C(O)c1cc2ccccc2c(Cc2c(O)c(C(=O)O)cc3ccccc23)c1O` [Compound of formula 8], the TΔS (BLVRB [1]) is reported as 1.08 ± 0.17 kcal/mol, the ΔG (BLVRB [1]) is reported as -7.84 ± 0.10 kcal/mol and the “ΔH (enthalpy of the reaction)” value (BLVRB [1]) is reported as -6.76 ± 0.13 kcal/mol. For the same molecule, the “N (stoichiometry)” value (BLVRB [1]) was 1.01 and the Kd (BLVRB [1]) was 1800 ± 310 nM.
With `O=C([O-])c1c(Cl)c(Cl)c(Cl)c(Cl)c1-c1c2cc(Br)c(=O)c(Br)c-2oc2c(Br)c([O-])c(Br)cc12.[Na+].[Na+]` [Phloxine B, reference compound] the “multimerization of BLVRB upon addition of compound” value (BLVRB [2]) was “induce multimerization of BLVRB”, the TΔS (BLVRB [1]) was 4.12 ± 0.12 kcal/mol and the ΔG (BLVRB [1]) was -8.00 ± 0.10 kcal/mol. For the same molecule, the “ΔH (enthalpy of the reaction)” value (BLVRB [1]) was -3.88 ± 0.06 kcal/mol, the “N (stoichiometry)” value (BLVRB [1]) was 0.99 and the Kd (BLVRB [1]) was 1360 ± 220 nM. The “size of BLVRB-inhibitor complex” value (BLVRB [3]) was “increase in the size of the BLVRB-inhibitor complex”.
For `O=C(O)c1cccc(-c2noc(-c3ccccc3F)n2)c1` [Compound of formula 4], the TΔS (BLVRB [1]) was -1.83 ± 0.09 kcal/mol, the ΔG (BLVRB [1]) was -9.13 ± 0.07 kcal/mol and the “ΔH (enthalpy of the reaction)” value (BLVRB [1]) was -10.96 ± 0.06 kcal/mol. The “N (stoichiometry)” value (BLVRB [1]) was 1.02 and the Kd (BLVRB [1]) was 200 ± 20 nM.
For `O=C(O)c1cc(/N=N/c2ccc(S(=O)(=O)Nc3ccccn3)cc2)ccc1O` [Compound of formula 1], the TΔS (BLVRB [1]) was -0.76 ± 0.07 kcal/mol, the ΔG (BLVRB [1]) was -8.67 ± 0.05 kcal/mol and the “ΔH (enthalpy of the reaction)” value (BLVRB [1]) was -9.43 ± 0.05 kcal/mol. The “N (stoichiometry)” value (BLVRB [1]) was 0.99 and the Kd (BLVRB [1]) was 440 ± 40 nM.
For `O=C(O)c1ccccc1-c1c2cc(I)c(=O)c(I)c-2oc2c(I)c(O)c(I)cc12` [Erythrosin B, reference compound], the “multimerization of BLVRB upon addition of compound” value (BLVRB [2]) was “induce multimerization of BLVRB”, the TΔS (BLVRB [1]) was 2.91 ± 0.13 kcal/mol and the “contribution from entropy, of the total binding energy” value (BLVRB [1]) was 31%. The ΔG (BLVRB [1]) was -9.28 ± 0.11 kcal/mol, the “ΔH (enthalpy of the reaction)” value (BLVRB [1]) was -6.38 ± 0.06 kcal/mol and the “N (stoichiometry)” value (BLVRB [1]) was 1.04. The Kd (BLVRB [1]) was 160 ± 30 nM, the “size of BLVRB-inhibitor complex” value (BLVRB [3]) was “increase in the size of the BLVRB-inhibitor complex” and the thyroid tumor promotion (rats) was “promote thyroid tumors in rats”.
In the case of `CC1(C)CCC(C)(C)c2cc(NC(=O)c3ccc(C(=O)O)cc3)ccc21` [Compound of formula 3], the TΔS (BLVRB [1]) is reported as 3.50 ± 0.10 kcal/mol, the “contribution from entropy, of the total binding energy” value (BLVRB [1]) is reported as 44% and the ΔG (BLVRB [1]) is reported as -7.99 ± 0.08 kcal/mol. For the same molecule, the “ΔH (enthalpy of the reaction)” value (BLVRB [1]) was -4.49 ± 0.06 kcal/mol, the “N (stoichiometry)” value (BLVRB [1]) was 1.07 and the Kd (BLVRB [1]) was 1380 ± 180 nM.
